Consider 3 compounds from patent US20240197674A1, “NOVEL USE OF 3-(4-(BENZYLOXY)PHENYL)HEX-4-INOIC ACID DERIVATIVE” (Hyundai Pharm Co., Ltd., priority 2021, published 2024).

Common to all, as to assay type: cell-based
Test [1] concerns C2C12 cells. The test is described as follows: Cell viability of differentiated C2C12 myotubes treated with palmitate. The note with it: C2C12 differentiated 6 days into myotubes, with palmitate in differentiation medium, versus palmitate only. The method, then: (§1) Sarcopenia is known to be accelerated by diabetes, obesity, or inflammatory responses. Accordingly, it was confirmed whether Compound A can inhibit muscle loss even under the above conditions as follows. Palmitate (PA; P9767, Sigma-Aldrich, USA) was dissolved in ethanol and then mixed with bovine serum albumin (BSA; A7888, Sigma-Aldrich) dissolved in DMEM at a molar ratio of 6:1, followed by conjugation at 60° C. for 1 hour. Cells were treated with the resulting conjugate.
(§2) Atrogin-1 is a type of E3 ubiquitin ligase and a marker associated with muscular atrophy, and it is known that, as its gene expression increases, muscle is broken down. To confirm the change in atrogin-1 expression by Compound A, C2C12 cells were cultured in a differentiation medium for 6 days to induce differentiation into myotubes, and the differentiated cells were treated with a mixture of Compound A and palmitate in a differentiation medium. Afterward, an expression level was confirmed using an atrogin-1 antibody (Abnova, PAB15627), and cell viability was measured.

Test [2] deals with C2C12 cells. The test is described as follows: Expression of myogenic factors MyoG and MyHC by western blotting in C2C12 myoblasts. The note with it: differentiation medium (2% horse serum DMEM), 3 days. The method, then:
(§3) C2C12 cells, which are myoblasts, were cultured and treated with a mixture of Compound A in a differentiation medium [2% horse serum (Cat No. 16050, Invitrogen, USA)-containing DMEM (Cat No. 11965, Invitrogen)] for 3 days. Afterward, the change in expression of myogenin (myogenic factor 4, MyoG) and a myosin heavy chain (MyHC), which are known as myogenic factors, was confirmed by western blotting. As primary antibodies, a MyoG antibody (Santa Cruz, sc-12732), a MyHC antibody (Santa Cruz, sc-32732), and a beta-actin antibody (Santa Cruz, sc-47778) were used. As a result, it can be confirmed that the higher the treatment concentration of Compound A, the higher the expression of MyoG and MyHC (FIG. 1).
(§4) Since Compound A is known as a G-protein-coupled receptor40 agonist (GPR40 agonist), it was confirmed whether the myogenesis promoting effect (Experimental Example 1) of Compound A is a general effect of GPR40 agonists. Specifically, experiments were conducted in the same manner as in Experimental Examples 1 and 2, except that C2C12 cells were treated with LY2922470 instead of Compound A. As a result of the experiments, it can be seen that, when the C2C12 cells were treated with LY2922470, the expression of myogenic factors MyoG and MyHC was inhibited (FIG. 7), the MyHC positive area decreased, and myotube formation was inhibited (FIG. 8).
In general terms: Immunoblotting shows a protein as a band on a membrane.

Test [3] relates to C2C12 cells. The test is described as follows: Cell viability assay kit after palmitate treatment. The note with it: with palmitate in growth medium, 24 hours, versus palmitate only. As for the experimental part:
as §1
(§5) After mixing Compound A and the palmitate in a growth medium (10% FBS (Cat No. 16000, Invitrogen)-containing DMEM), C2C12 cells were treated with the resulting mixture for 24 hours, and then a Bax/Bcl2 ratio was confirmed by western blotting and cell viability was assessed using a cell viability assay kit (Dozen, EZ-3000). Primary antibodies used herein were the Bax antibody (Santa Cruz, sc-7480) and Bcl2 antibody (Santa Cruz, sc-7382). Bax is a protein inducing apoptosis, and Bcl2 is a protein inhibiting apoptosis by hindering the migration of Bax to mitochondria.
as §4

The test system of test [4] is C2C12 cells. The test is described as follows: Bax/Bcl2 ratio by western blotting after palmitate treatment. To be noted: with palmitate in growth medium, 24 hours, versus palmitate only. As for the experimental part:
as §1, §5

Test [5] relates to C2C12 cells. The test is described as follows: MyHC immunohistochemistry: MyHC positive area, myotube thickness and myotube formation. To be noted: C2C12 myoblasts, differentiation medium, 3 days. As for the experimental part:
as §3
In addition, C2C12 cells were treated with Compound A in the same manner as above, and then immunohistochemistry was performed with a MyHC antibody. As a result, it was confirmed that, as the treatment concentration of Compound A increases, the MyHC positive area and myotube thickness increase (FIG. 2).
as §4

Test [6] has as its system C2C12 cells. The test is described as follows: MyoG and MyHC expression after palmitate treatment and 3 days of differentiation. To be noted: with palmitate 24 hours, then 3 days differentiation, versus decrease by palmitate only. As for the experimental part: as §1
(§6) Compound A and the palmitate were mixed in a growth medium (10% FBS-containing DMEM), and C2C12 cells were treated with the resulting mixture. After 24 hours, the medium was exchanged with a fresh […] to induce differentiation for 3 days, and after 3 days, the cells were collected to confirm the expression of MyoG and MyHC, and the changes in MyHC positive area and myotube thickness.

Test [7] relates to C2C12 cells. The test is described as follows: Atrogin-1 expression in differentiated C2C12 myotubes treated with palmitate. The note with it: C2C12 differentiated 6 days into myotubes, with palmitate in differentiation medium, versus palmitate only. As for the experimental part: as §1, §2
Test [8] relates to C2C12 cells. The test is described as follows: MyHC positive area and myotube thickness after palmitate treatment and 3 days of differentiation. The note with it: with palmitate 24 hours, then 3 days differentiation, versus decrease by palmitate only. As for the experimental part: as §1, §6
The mark [9] stands for this setting: immunohistochemistry with MyHC antibody.

“Also recorded” adds a separate entry of the source.

For the compound `CC#C[C@@H](CC(=O)O)c1ccc(OCc2cccc(C3=CCC4(CC3)OCCO4)c2)cc1` [Compound A, (3S)-3-(4-(3-(1,4-dioxaspiro[4,5]des-7-en-8-yl)benzyloxy)phenyl)hex-4-inoic acid], the cell viability entry in test [1] is given as “recovered”. In test [2], the “expression of MyHC” value is “higher” and the “expression of MyoG” value is given as “higher”. Moreover, the “cell viability (apoptosis caused by palmitate)” value in test [3] was “increased; also recorded: inhibited apoptosis”. In addition, the Bax/Bcl2 ratio entry in test [4] is “decreased”. For the same compound, in test [5] (setting [9]), the MyHC positive area result is “increase” and the myotube thickness entry is on record as “increase”. For the same compound, in test [6], the “expression of MyHC” value is listed as “reversed” and the “expression of MyoG” value is given as “reversed”. Besides, the atrogin-1 expression entry in test [7] is listed as “decreased”. Moreover, in test [8], the MyHC positive area entry is “reversed” and the myotube thickness result was “reversed”.

For `CC#C[C@@H](CC(=O)O)c1ccc(OCc2cccc(C3=CCC4(CC3)OCCO4)c2)cc1` [compound of Formula 1, (3S)-3-(4-(3-(1,4-dioxaspiro[4,5]des-7-en-8-yl)benzyloxy)phenyl)hex-4-inoic acid], in test [2], the “expression of MyHC” value is given as “increases” and the “expression of MyoG” value is “increases”. In test [3], the “cell viability (apoptosis caused by palmitate)” value is recorded as “reversed”. The Bax/Bcl2 ratio entry in test [4] was “reversed”. In addition, the myotube formation result in test [5] is “promoted”. In addition, in test [6], the “expression of MyHC” value is reported as “reversed” and the “expression of MyoG” value is given as “reversed”. In addition, in test [8], the MyHC positive area result was “reversed” and the myotube thickness entry is on record as “reversed”.

`CC#C[C@@H](CC(=O)O)c1ccc(OCc2ccc(CN3CCCc4cccc(OC)c43)s2)cc1` [LY2922470, reference compound]: in test [2], the “expression of MyHC” value is listed as “inhibited” and the “expression of MyoG” value is given as “inhibited”. Besides, the “cell viability (apoptosis caused by palmitate)” value in test [3] is “did not inhibit apoptosis”. Further, the myotube formation result in test [5] is “inhibited”. Further, the MyHC positive area result in test [5] (setting [9]) is “decreased”.
